Experimental findings from patent publication US9062008B2, “Compounds useful as inhibitors of ATR kinase” (Vertex Pharmaceuticals Incorporated, priority 2010, dated 2015) are described below.

What is called Ki is the dissociation constant of the complex between target and ligand, obtained from inhibition or displacement. For orientation: inhibition means the drop in the measured response relative to a control, in per cent.

The target of the assay is T1, full-length ATR (Homo sapiens, UniProt Q13535).
T1 construct: Assays were carried out at 25° C. in the presence of 5 nM full-length ATR
Briefly: ATR Inhibition Assay (radioactive-phosphate incorporation). In kind it is biochemical. Particulars: for % inhibition of ATR / inhibition at 8 µM: at 8 uM. How it is done: Compounds were screened for their ability to inhibit ATR kinase using a radioactive-phosphate incorporation assay. Assays were carried out in a mixture of 50 mM Tris/HCl (pH 7.5), 10 mM MgCl2 and 1 mM DTT. Final substrate concentrations were 10 μM [γ-33P]ATP (3mCi 33P ATP/mmol ATP, Perkin Elmer) and 800 μM target peptide ([…] (SEQ. ID NO: 1)).
Assays were carried out at 25° C. in the presence of 5 nM full-length ATR. An assay stock buffer solution was prepared containing all of the reagents listed above, with the exception of ATP and the test compound of interest. 13.5 μL of the stock solution was placed in a 96 well plate followed by addition of 2 μL of DMSO stock containing serial dilutions of the test compound (typically starting from a final concentration of 15 μM with 3-fold serial dilutions) in duplicate (final DMSO concentration 7%). The plate was pre-incubated for 10 minutes at 25° C. and the reaction initiated by addition of 15 μl. [γ-33P]ATP (final concentration 10 μM).
The reaction was stopped after […] by the addition of 30 μL 0.1 M phosphoric acid containing 2 mM ATP. A multiscreen phosphocellulose filter 96-well plate (Millipore, Cat no. MAPHN0B50) was pretreated with 100 μL 0.2M phosphoric acid prior to the addition of 45 μL of the stopped assay mixture. The plate was washed with 5×200 μL 0.2 M phosphoric acid. After drying, 100 μL Optiphase ‘SuperMix’ liquid scintillation cocktail (Perkin Elmer) was added to the well prior to scintillation counting (1450 Microbeta Liquid Scintillation Counter, Wallac).
After removing mean background values for all of the data points, Ki(app) data were calculated from non-linear regression analysis of the initial rate data using the Prism software package (GraphPad Prism version 3.0cx for Macintosh, GraphPad Software, San Diego Calif., USA).

T1 sequence (Q13535 whole entry): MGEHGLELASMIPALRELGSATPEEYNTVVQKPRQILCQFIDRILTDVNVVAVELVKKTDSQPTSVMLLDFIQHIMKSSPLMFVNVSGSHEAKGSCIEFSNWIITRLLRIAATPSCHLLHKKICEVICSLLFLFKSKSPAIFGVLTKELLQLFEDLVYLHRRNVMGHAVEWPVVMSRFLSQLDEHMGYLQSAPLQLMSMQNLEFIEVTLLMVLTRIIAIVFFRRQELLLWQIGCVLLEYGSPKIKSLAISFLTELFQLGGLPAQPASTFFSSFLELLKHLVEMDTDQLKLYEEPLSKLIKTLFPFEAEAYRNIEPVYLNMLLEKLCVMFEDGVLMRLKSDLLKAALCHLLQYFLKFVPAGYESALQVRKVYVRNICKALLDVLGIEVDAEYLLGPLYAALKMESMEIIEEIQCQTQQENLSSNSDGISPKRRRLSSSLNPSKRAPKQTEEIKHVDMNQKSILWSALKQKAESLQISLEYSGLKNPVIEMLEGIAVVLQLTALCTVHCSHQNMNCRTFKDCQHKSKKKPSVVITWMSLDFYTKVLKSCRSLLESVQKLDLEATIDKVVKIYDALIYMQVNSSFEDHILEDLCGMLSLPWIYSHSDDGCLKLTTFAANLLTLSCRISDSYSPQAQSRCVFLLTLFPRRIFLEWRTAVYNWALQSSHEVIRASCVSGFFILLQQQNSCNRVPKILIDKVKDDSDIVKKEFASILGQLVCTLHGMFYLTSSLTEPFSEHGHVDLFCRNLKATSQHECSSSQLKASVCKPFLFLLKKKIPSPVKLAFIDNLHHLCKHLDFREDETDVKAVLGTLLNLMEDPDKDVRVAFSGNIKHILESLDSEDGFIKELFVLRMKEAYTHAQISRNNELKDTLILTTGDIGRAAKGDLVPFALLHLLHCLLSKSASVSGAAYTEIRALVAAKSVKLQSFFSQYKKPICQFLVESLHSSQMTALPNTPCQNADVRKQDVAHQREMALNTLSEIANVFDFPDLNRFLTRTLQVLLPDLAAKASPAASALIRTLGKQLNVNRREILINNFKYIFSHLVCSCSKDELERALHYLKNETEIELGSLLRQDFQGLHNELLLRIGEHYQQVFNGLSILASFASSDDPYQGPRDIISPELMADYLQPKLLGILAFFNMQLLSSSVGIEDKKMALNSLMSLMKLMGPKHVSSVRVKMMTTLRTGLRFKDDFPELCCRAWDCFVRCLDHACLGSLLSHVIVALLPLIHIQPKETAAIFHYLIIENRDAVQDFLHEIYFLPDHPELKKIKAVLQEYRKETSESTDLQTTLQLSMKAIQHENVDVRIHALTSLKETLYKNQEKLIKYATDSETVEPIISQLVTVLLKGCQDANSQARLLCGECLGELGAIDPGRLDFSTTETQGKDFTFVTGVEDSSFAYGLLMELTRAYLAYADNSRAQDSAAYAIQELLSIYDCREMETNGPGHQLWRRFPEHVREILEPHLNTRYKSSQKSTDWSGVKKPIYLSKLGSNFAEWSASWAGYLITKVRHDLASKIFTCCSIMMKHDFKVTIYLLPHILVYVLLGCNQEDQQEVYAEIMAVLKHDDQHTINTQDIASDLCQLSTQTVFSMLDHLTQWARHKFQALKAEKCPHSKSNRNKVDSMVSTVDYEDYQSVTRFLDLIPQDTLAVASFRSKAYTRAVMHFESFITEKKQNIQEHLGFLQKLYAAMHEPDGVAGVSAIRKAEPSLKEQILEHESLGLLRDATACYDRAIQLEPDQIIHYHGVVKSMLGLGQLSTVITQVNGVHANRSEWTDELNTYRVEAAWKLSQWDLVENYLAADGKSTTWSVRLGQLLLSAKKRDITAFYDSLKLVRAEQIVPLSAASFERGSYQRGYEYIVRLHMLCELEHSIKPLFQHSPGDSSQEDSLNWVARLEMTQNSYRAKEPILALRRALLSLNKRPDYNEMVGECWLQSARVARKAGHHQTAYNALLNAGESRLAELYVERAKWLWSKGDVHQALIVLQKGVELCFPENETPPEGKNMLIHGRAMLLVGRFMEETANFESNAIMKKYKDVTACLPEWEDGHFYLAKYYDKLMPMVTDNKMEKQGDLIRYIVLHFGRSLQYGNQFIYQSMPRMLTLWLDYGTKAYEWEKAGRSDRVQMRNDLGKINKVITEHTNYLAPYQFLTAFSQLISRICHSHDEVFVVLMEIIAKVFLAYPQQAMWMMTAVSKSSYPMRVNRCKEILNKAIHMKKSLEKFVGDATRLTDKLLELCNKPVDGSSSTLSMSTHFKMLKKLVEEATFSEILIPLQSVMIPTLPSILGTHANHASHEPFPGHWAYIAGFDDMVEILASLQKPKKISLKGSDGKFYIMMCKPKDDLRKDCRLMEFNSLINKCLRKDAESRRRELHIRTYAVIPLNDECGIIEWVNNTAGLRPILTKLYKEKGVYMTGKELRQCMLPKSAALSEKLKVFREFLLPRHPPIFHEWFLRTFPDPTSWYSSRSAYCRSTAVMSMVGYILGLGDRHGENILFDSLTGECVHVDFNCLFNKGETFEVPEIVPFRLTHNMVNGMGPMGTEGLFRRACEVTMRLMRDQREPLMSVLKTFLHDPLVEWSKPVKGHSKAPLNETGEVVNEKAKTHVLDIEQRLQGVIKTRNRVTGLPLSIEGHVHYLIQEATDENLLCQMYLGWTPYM

As for `CC(C)S(=O)(=O)c1ccc(-c2cnc(N)c(N3CCN(c4ccccc4)CC3)n2)cc1` [Compound V-1, 5-(4-Isopropylsulfonylphenyl)-3-(4-phenylpiperazin-1-yl)pyrazin-2-amine], the “% inhibition of ATR” value is listed as “no detectable inhibition”.

Take `CC(C)S(=O)(=O)c1ccc(-c2cnc(N)c(N3CCC(N)C3)n2)cc1` (centres unmarked) [Compound V-2, 3-(3-Aminopyrrolidin-1-yl)-5-(4-isopropylsulfonylphenyl)pyrazin-2-amine]: the Ki was > 1 µM and the inhibition at 8 µM was 10%.

On to `CC(C)S(=O)(=O)c1ccc(-c2cnc(N)c(NCc3ccccc3)n2)cc1` [Compound V-3], for which the Ki is > 1 µM and the inhibition at 8 µM is 10%.

In the case of `CC(C)S(=O)(=O)c1ccc(-c2cnc(N)c(NCC3=CC(O)CC=C3)n2)cc1` (centres unmarked) [Compound V-4], the Ki lay within 0.1 to 1 µM.

For `CC(C)S(=O)(=O)c1ccc(-c2cnc(N)c(NCCc3ccccc3)n2)cc1` [Compound V-5, 5-(4-Isopropylsulfonylphenyl)-N3-phenethyl-pyrazine-2,3-diamine], the inhibition at 8 µM amounted to 20%.

Regarding `CC(C)S(=O)(=O)c1ccc(-c2cnc(N)c(NC[C@H](O)c3ccccc3)n2)cc1` [Compound V-6, (1R)-2-[[3-amino-6-(4-isopropylsulfonylphenyl)pyrazin-2-yl]amino-]-1-phenyl-ethanol], the Ki is > 1 µM and the inhibition at 8 µM was determined as 10%.

As to `CC(C)S(=O)(=O)c1ccc(-c2cnc(N)c(NC[C@@H](O)c3ccccc3)n2)cc1` [Compound V-7, (1S)-2-[[3-Amino-6-(4-isopropylsulfonylphenyl)pyrazin-2-yl]amino]-1-phenyl-ethanol], the Ki is > 1 µM and the inhibition at 8 µM was determined as 30%.

In the case of `CS(=O)(=O)c1ccc(-c2cnc(N)c(OCc3ccccc3)n2)cc1` [Compound V-9], the inhibitory constant (Ki) was ≤ 0.1 µM.

With `CS(=O)(=O)c1ccc(-c2cnc(N)c(/C=C/c3ccccc3)n2)cc1` [Compound V-10], the Ki was ≤ 0.1 µM.

Turning to `CC(C)S(=O)(=O)c1ccc(-c2cnc(N)c(CCc3ccccc3)n2)cc1` [Compound V-11, 5-(4-Isopropylsulfonylphenyl)-3-phenethyl-pyrazin-2-amine], the Ki is ≤ 0.1 µM.

Regarding `CC(C)S(=O)(=O)c1ccc(-c2cnc(N)c(C(=O)c3ccccc3)n2)cc1` [Compound V-12, [3-Amino-6-(4-isopropylsulfonylphenyl)pyrazin-2-yl]-phenyl-methanone], the Ki is ≤ 0.1 µM.

As for `CC(C)S(=O)(=O)c1ccc(-c2cnc(N)c(NCCc3ccccc3)n2)cc1` [Compound V-13, 6-(4-(isopropylsulfonyl)phenyl)-N2-phenethylpyrazine-2,3-diamine], the inhibition constant Ki was > 1 µM.

For `CS(=O)(=O)c1ccc(-c2cnc(N)c(NS(=O)(=O)c3ccccc3)n2)cc1` [Compound V-14, N-(3-amino-6-(4-(methylsulfonyl)phenyl)pyrazin-2-yl)benzenesulfonamide], the Ki was > 1 µM and the “% inhibition of ATR” value is “no detectable inhibition”.

For `CC(C)n1cc(-c2cnc(N)c(OCc3ccccc3)n2)ccc1=O` [Compound V-15, 5-(5-amino-6-(benzyloxy)pyrazin-2-yl)-1-isopropylpyridin-2(1H)-one], the Ki fell in the range of 0.1 to 1 µM.

With `CC(C)S(=O)(=O)c1ccc(-c2cnc(N)c(/C(F)=C/c3ccccc3)n2)cc1` [Compound V-16, (Z)-3-(1-fluoro-2-phenylvinyl)-5-(4-(isopropylsulfonyl)phenyl)pyrazin-2-amine], the Ki was ≤ 0.1 µM.
